This is an account of results in article PMC12040169 (PLOS Biology, 2025).

The series in a line: in vitro. Conditions: human, hela cells, % viability.

Turning to `CC(C)(C)SCCNC(=S)NCCO` [CBK020686], the viability at 28.5 h, 10 µM stood at 98.7%. With `CCN(CC)CCN(C)Cc1ccc2ccc3cccc4ccc1c2c34` [CBK261859], where the note is “bulk resorufin, single well”, the viability at 28.5 h, 10 µM was found to be 103%. On to `O=C(O)c1cc(-c2ccc(-c3ccc(Cl)c(C(F)(F)F)c3)o2)nc2ccc(F)cc12` [CBK300501], for which the viability at 28.5 h, 10 µM came out at 111%. On the same count and under the same terms, under `C[C@H](c1ccccc1)N1C(=O)[C@@H]2CN(C(=O)CC(C)(C)CC(=O)O)CCN2C1=O` [CBK289639] stands 114%. The same measure, in the same setting: under `O=C1CCCN1CCC1CCN(c2nccc(CCC(F)(F)F)n2)CC1` [CBK307534] stands 90.1%; under `O=C(NC(=S)Nc1cccc(-c2nc3ncccc3o2)c1)c1ccc(-c2cccc([N+](=O)[O-])c2)o1` [CBK267870], 83.4%; under `O=C(CSc1nc(=O)cc(O)[nH]1)N1CCc2ccccc21` [CBK269350], 88.7%. With `COc1ccc(-c2cnc3[nH]c(=O)n(Cc4ccccc4)c3n2)cc1` [CBK064210], the viability at 28.5 h, 10 µM turned out to be 103%. On to `O=C(O)CCCN1C(=O)/C(=C/c2ccccc2[N+](=O)[O-])SC1=S` [CBK262801], for which the viability at 28.5 h, 10 µM amounted to 90.4%. Turning to `O=[N+]([O-])c1ccc(N2CCN(S(=O)(=O)c3ccc4ccccc4c3)CC2)c(C(F)(F)F)c1` [CBK264827], the viability at 28.5 h, 10 µM was 103%.

In the case of `CC(C)(C)OC(=O)N1CCN(Cc2ncc(-c3ccccc3)o2)CC1` [CBK306281], the viability at 28.5 h, 10 µM turned out to be 99.3%. In the case of `CC(=O)N[C@H](C(=O)N1CCC2(C/C=C/C[C@H]3COCC[C@H]3NC(=O)[C@@H](CC(C)C)NC2=O)CC1)[C@@H](C)OC(C)(C)C` [CBK292197], the viability at 28.5 h, 10 µM is 90.7%. Turning to `Cc1cc(C(=O)NC2CCCOC2)c2cccc(Cl)c2n1` (stereo not shown) [CBK282459], the viability at 28.5 h, 10 µM stood at 95.3%. Consider `COC(=O)Nc1ccc2c(c1)N(C(=O)CCN1CCN3CCCC3C1)c1ccccc1CC2` (stereo not shown) [CBK278220C], for which the viability at 28.5 h, 10 µM was 93.1%. Take `CN(C(=O)Cn1cc(C(=O)NCC(C)(C)c2ccc(F)cc2)ccc1=O)c1ccccc1` [CBK285662]: the viability at 28.5 h, 10 µM was 108%. Same read-out and setting: with `O=C(O)CCc1ccc(-c2cccs2)n1NC(=O)c1sc2ccccc2c1Cl` [CBK264782] the figure was 96.1%; with `O=C(COc1ccc(S(=O)(=O)N2CCCCC2)cc1Cl)NCc1ccccn1` [CBK269253], 89.6%. Take `Cc1nc(CN2CCC3(CC2)CN(C(=O)CO)c2ccccc23)cs1` [CBK131523]: the viability at 28.5 h, 10 µM was 93.5%. As for `CN(CC1(C)COC1)C(=O)c1ccc2c(c1)ncn2C1CC1` [CBK281718], the viability at 28.5 h, 10 µM was found to be 86.8%. For the molecule `CC(C)CCC(C)NC(=O)c1ccc(Oc2ccc(F)cc2)cc1` (stereo not shown) [CBK295650], the viability at 28.5 h, 10 µM was 88.3%. Regarding `CC(=O)N[C@H]1CO[C@H]2[C@@H]1OC[C@@H]2n1nnnc1Oc1ccc(-n2ccnc2)cc1` [CBK289487], the viability at 28.5 h, 10 µM was found to be 104%. As for `O=C(O)C(Cc1ccccc1)NS(=O)(=O)c1ccc(I)cc1` (stereo not shown) [CBK268807], the viability at 28.5 h, 10 µM stood at 110%. The same measure, in the same setting: with `CC(C)(C)c1ccc(C(=O)Nc2ccccc2C(=O)Nc2ccc(C(=O)O)cc2)cc1` [CBK268626] the figure was 89.1%. In the case of `COc1ccc(CNCCN2CCOCC2)c(OC)c1` [CBK278180C], the viability at 28.5 h, 10 µM was found to be 90.1%. As to `Cc1cc(=O)[nH]c(SCc2cc(=O)c3ccccc3[nH]2)n1` [CBK294410], the viability at 28.5 h, 10 µM came to 86.3%. As to `CC1CCCCN1C(=O)C1C2CCC3(CC(=O)c4ccccc4O3)C21` (stereo not shown) [CBK284960], the viability at 28.5 h, 10 µM worked out at 101%. As to `Cc1cc(-c2nnc(SCC(=O)N3CCOCC3)o2)no1` [CBK268984], the viability at 28.5 h, 10 µM was 103%. `Cc1ccc(N2C(=O)CSC23C(=O)Nc2ccccc23)cc1Br` (stereo not shown) [CBK093472]: the viability at 28.5 h, 10 µM is 104%. As to `Cc1ccc(C(=O)NCCCNc2ccc(Cl)cc2[N+](=O)[O-])cc1` [CBK262334], the viability at 28.5 h, 10 µM is 101%. For the molecule `CCc1ccc(C(=O)Nc2cccc(-c3ccc4c(c3)COC3(CCNCC3)O4)c2)cc1` [CBK093680], the viability at 28.5 h, 10 µM (bulk resorufin, single well) stood at 67.5%.

In the case of `COc1ccc(-c2noc([C@@H]3C[C@@H](O)CN3C3CCOCC3)n2)cc1` [CBK288844], the viability at 28.5 h, 10 µM was determined as 83.7%. `Clc1ccc(CN2CCCN(c3nccc(OCC4COc5ccccc5O4)n3)CC2)cc1` (stereo not shown) [CBK084038]: the viability at 28.5 h, 10 µM came out at 84.9%. `CC(=O)c1ccc(-c2nccnc2N[C@@H]2CCN(Cc3ccccc3)C2)s1` [CBK036981]: the viability at 28.5 h, 10 µM was 104%. As to `O=C(c1cc2ccccc2o1)N1CCN(c2cccc(C(F)(F)F)c2)CC1` [CBK297507], the viability at 28.5 h, 10 µM is 96.8%. Same read-out and setting: under `CCc1nccn1C(C)C(=O)Nc1ccc2ncn(C)c2c1` (stereo not shown) [CBK281745] stands 107%. `O=C(Nc1ccc(Sc2ccc([N+](=O)[O-])cc2)cc1)c1ccc2c(c1)C(=O)N(c1ccccc1-c1ccccc1)C2=O` [CBK261340]: the viability at 28.5 h, 10 µM stood at 77.1%. Still for that read-out and setting: under `CN1CCN(c2nccnc2-c2ccccc2)CC1` [CBK088825] stands 88.7%; under `O=C(Nc1ccc(Cl)c(C(=O)O)c1)c1cccc(-n2cnnc2)c1` [CBK270016], 86.5%. Still for that read-out and setting: with `CC(=O)Nc1ccc(NC(=O)CN(C2CCCCC2)S(C)(=O)=O)cc1` [CBK266755] the figure was 93.3%; with `CCOC(=O)CCCNC(=O)N(CC)Cc1ccccc1` [CBK155252], 106%; with `CC(Oc1cccc(Cl)c1)C(=O)O/N=C(\N)Cc1cccc2ccccc12` (stereo not shown) [CBK266033], 90.3%.

`O=C(c1ccc(F)cc1)N1CCN(c2ccc(Nc3ccncc3)nn2)CC1` [CBK287836]: the viability at 28.5 h, 10 µM amounted to 99.7%. With `CCc1cc(Br)ccc1S(=O)(=O)NCCc1cccs1` [CBK045033], the viability at 28.5 h, 10 µM stood at 109%. As to `CN1CCN(c2ccc(NC(=O)c3cc([N+](=O)[O-])ccc3N3CCOCC3)cc2)CC1` [CBK269425], the viability at 28.5 h, 10 µM was determined as 95.6%.

Regarding `COC(=O)COc1ccc2cccc(-n3cnnn3)c2c1` [CBK270173], the viability at 28.5 h, 10 µM amounted to 84.7%.

With `Cc1ccc(C(=O)Nc2ncn(CC(=O)N3CCCCCC3)n2)s1` [CBK304951], the viability at 28.5 h, 10 µM stood at 98.2%.

As to `CCOC(=O)C1(C2CCCCC2)CCN(C(=O)c2cccnc2)CC1` [CBK137104T], the viability at 28.5 h, 10 µM was 95.4%.

Regarding `CCn1c2ccccc2c2cc(NC(=O)CSc3nnc(-c4ccoc4C)o3)ccc21` [CBK269010], the viability at 28.5 h, 10 µM is 105%. Regarding `Nc1nc(=O)n([C@@H]2O[C@H](CO)[C@H](O)C2O)cc1I` (stereo partly shown) [CBK201306], the viability at 28.5 h, 10 µM is 107%. As to `CCc1c(C)sc2ncn(C3CCN(C(=O)C(C)C)CC3)c(=O)c12` [CBK282377], the viability at 28.5 h, 10 µM was found to be 81.1%. The same measure, in the same setting: under `COc1ccccc1-c1c(O)n[nH]c1CCC1CCCC1` [CBK075128] stands 97.5%; under `CCOc1ccc(S(=O)(=O)Nc2ccc(O)c(C(=O)O)c2)cc1` [CBK299810], 93.5%; under `Cc1cccc(OCC(=O)NCC(c2cccs2)N2CCOCC2)c1` (stereo not shown) [CBK305426], 90.1%. With `O=C(c1ccc2ncccc2c1)N1CCN(c2ncccn2)CC1` [CBK144503], the viability at 28.5 h, 10 µM worked out at 87.9%.

For the molecule `O=C(O)c1c(Br)c(Br)c(Br)c(Br)c1C(=O)NCCc1ccccc1` [CBK261702], the viability at 28.5 h, 10 µM came out at 90.7%.
